# Ends that are not written are not given here.
# Tests used:
# HeLa cells [1] = assay: Microscopic observation of morphological change in cells; format: cell-based, human; settings: 20 μM, 3 min
# Method: In order to observe morphological changes in cells in detail, the cells were incubated with 20 μM of the peptide eMTDΔ4 (SEQ ID NO: 2) and observed with the aid of a microscope (Leica). The results are depicted in FIG. 2.
# HeLa = assay: MTS assay, relative cell viability, HeLa; format: cell-based, human
# Method: (§1) Individual cell lines (HeLa, CT26, and B16F10) were purchased from the Korean Cell Line Bank. Dulbecco's modified Eagle's medium (DMEM), trypsin-EDTA, fetal bovine serum (FBS), and Hank's balanced salt solution (HBSS) were products from Gibco (Thermo Fisher).
# (§2) Each of the cell lines was cultured in DMEM supplemented with 10% FBS in an incubator maintained at 37° C. and 5% 002.
# For use in assaying the peptides eMTD (SEQ ID NO: 1) and eMTDΔ4 (SEQ ID NO: 2) synthesized in Example 1 for activity of inducing cell death, the cell line HeLa was grown to about 90% confluency in 96-well plates. The cells were washed once with HBSS buffer before treatment with the peptides of the present disclosure eMTD (SEQ ID NO: 1) and eMTDΔ4 (SEQ ID NO: 2) at concentrations of 0, 20, and 40 for one hour. Thereafter, the cells were incubated with an MTS assay agent (Promega) for one hour, followed by reading absorbance to calculate relative viability of cells.
# (§3) Examination was made to see whether the peptide has the activity of inducing cell death in other cancer cell lines. In this regard, the cancer cell lines HeLa, CT26, and B16F10 were treated with eMTDΔ4 (SEQ ID NO: 2) at concentrations of 0, 20, and 40 μM.
# HeLa cells [2] = assay: Intracellular calcium level, Fluo-4, confocal microscope; format: cell-based, human; settings: Fluo-4, 20 μM (FIG. 4)
# Method: In order to examine the mechanism in which the peptide eMTD (SEQ ID NO: 1) induces cell death in cancer cell lines, a change in intracellular calcium level, which is known as an important factor for cell death, was observed using the calcium indicator Fluo-4 under a confocal microscope (Leica).
# In brief, HeLa cells were grown to about 70% confluency in a Lab-Tek chamber glass a day before the experiment. Immediately before the experiment, of the calcium indicator Fluo-4 was diluted to a concentration of 5 in HBSS. HeLa cells were incubated with the dilution for 10 min in an incubator and then treated with the peptide eMTDΔ4 (SEQ ID NO: 2).
# B16F10 = assay: MTS assay, relative cell viability, B16F10; format: cell-based, murine
# Method: as §1, §2, §3
sequence,measurement,setting,value
KLNFRQKLLNLISKLF [eMTDΔ4],morphological change in cells,HeLa cells [1],most of the cells were observed to undergo necrosis with the consequent rupture of cell membranes after 3 min
same,Viability (%),"HeLa; 20 μM, Table 4",11%
same,Viability (%),"HeLa; 20 μM, one hour treatment, Table 3",53%
same,Viability (%),"HeLa; 40 μM, one hour treatment, Table 3",40%
same,cell death activity (in words),HeLa; FIG. 1 and Table 3,potent cell death activity
same,induction of cell death (in words),HeLa; FIG. 3 and Table 4,induce cell death
same,change in intracellular calcium level,HeLa cells [2],calcium influx into the cytosols thereof within less than one min
same,Viability (%),"B16F10; B16F10, 10 μM",68%
same,Viability (%),"B16F10; B16F10, 20 μM",33%
same,induction of cell death (in words),"B16F10; B16F10, FIG. 3 and Table 4",induce cell death

# From patent US11248024B2, “Noxa-derived, cell death-inducing peptide eMTD” (INDUSTRY-ACADEMIC COOPERATION FOUNDATION, CHOSUN UNIVERSITY, priority 2019, dated 2022)
